Measurements published in the supplement of paper PMC10307832.

Columns and labels:
Test in all cases: relative viability (nuclei count vs DMSO), 5 days (fraction); higher = more cells survive
A-427 = test system: A-427
In short: (§1)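 One day after seeding in 1536-well plates, lung cancer cell lines were dosed by pin tool. Dosing was either single-drug or a fixed anchor-drug dose plus five library-drug doses (not always all listed) in √10 steps. After 5 days, nuclei were stained in one fix-and-stain step and counted on 4× images, and relative viability is the nuclei count of treated wells over that of vehicle wells, given as the median of duplicate plates.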

COR-L 105 = test system: COR-L 105
In short: as §1

EPLC-272H = test system: EPLC-272H
In short: as §1

HCC-366 = test system: HCC-366
In short: as §1

HCC-78 = test system: HCC-78
In short: as §1

HOP-62 = test system: HOP-62
In short: as §1

LC-2-ad = test system: LC-2-ad
In short: as §1

LU99A = test system: LU99A
In short: as §1

LXF-289 = test system: LXF-289
In short: as §1

NCI-H1666 = test system: NCI-H1666
In short: as §1

NCI-H1792 = test system: NCI-H1792
In short: as §1

NCI-H1793 = test system: NCI-H1793
In short: as §1

NCI-H1915 = test system: NCI-H1915
In short: as §1

NCI-H1944 = test system: NCI-H1944
In short: as §1

NCI-H2009 = test system: NCI-H2009
In short: as §1

NCI-H2085 = test system: NCI-H2085
In short: as §1

NCI-H2170 = test system: NCI-H2170
In short: as §1

NCI-H358 = test system: NCI-H358
In short: as §1

NCI-H460 = test system: NCI-H460
In short: as §1

SK-LU-1 = test system: SK-LU-1
In short: as §1

SW 900 = test system: SW 900
In short: as §1

UMC-11 = test system: UMC-11
In short: as §1

`Nc1ccn([C@@H]2O[C@H](CO)[C@@H](O)[C@@H]2O)c(=O)n1` [Cytarabine] + Cc1nc(Nc2ncc(C(=O)Nc3c(C)cccc3Cl)s2)cc(N2CCN(CCO)CC2)n1 [Dasatinib] (partner 0.075 µM) gave a relative viability (A-427; first compound 0.005 µM) of 0.591, a relative viability (A-427; first compound 0.01581 µM) of 0.215 and a relative viability (A-427; first compound 0.05 µM) of 0.195. The relative viability (A-427; first compound 0.1581 µM) was 0.141, the relative viability (A-427; first compound 0.5 µM) was 0.135 and the relative viability (COR-L 105; first compound 0.005 µM) was 0.314. It also gave a relative viability (COR-L 105; first compound 0.01581 µM) of 0.311, a relative viability (COR-L 105; first compound 0.05 µM) of 0.293 and a relative viability (COR-L 105; first compound 0.1581 µM) of 0.196. It also gave a relative viability (COR-L 105; first compound 0.5 µM) of 0.187, a relative viability (EPLC-272H; first compound 0.005 µM) of 0.304 and a relative viability (EPLC-272H; first compound 0.01581 µM) of 0.241. The relative viability (EPLC-272H; first compound 0.05 µM) was 0.211, the relative viability (EPLC-272H; first compound 0.1581 µM) was 0.113 and the relative viability (EPLC-272H; first compound 0.5 µM) was 0.0979. For the same compound, the relative viability (HCC-366; first compound 0.005 µM) was 0.573, the relative viability (HCC-366; first compound 0.01581 µM) was 0.402 and the relative viability (HCC-366; first compound 0.05 µM) was 0.424. For the same compound, the relative viability (HCC-366; first compound 0.1581 µM) was 0.148, the relative viability (HCC-366; first compound 0.5 µM) was 0.0563 and the relative viability (HCC-78; first compound 0.005 µM) was 0.585. The relative viability (HCC-78; first compound 0.01581 µM) was 0.363, the relative viability (HCC-78; first compound 0.05 µM) was 0.27 and the relative viability (HCC-78; first compound 0.1581 µM) was 0.228. For the same compound, the relative viability (HCC-78; first compound 0.5 µM) was 0.208, the relative viability (HOP-62; first compound 0.005 µM) was 0.58 and the relative viability (HOP-62; first compound 0.01581 µM) was 0.531. For the same compound, the relative viability (HOP-62; first compound 0.05 µM) was 0.421, the relative viability (HOP-62; first compound 0.1581 µM) was 0.157 and the relative viability (HOP-62; first compound 0.5 µM) was 0.11. For the same compound, the relative viability (LC-2-ad; first compound 0.005 µM) was 0.358, the relative viability (LC-2-ad; first compound 0.01581 µM) was 0.308 and the relative viability (LC-2-ad; first compound 0.05 µM) was 0.347. For the same compound, the relative viability (LC-2-ad; first compound 0.1581 µM) was 0.225, the relative viability (LC-2-ad; first compound 0.5 µM) was 0.214 and the relative viability (LU99A; first compound 0.005 µM) was 0.563. The relative viability (LU99A; first compound 0.01581 µM) was 0.647, the relative viability (LU99A; first compound 0.05 µM) was 0.58 and the relative viability (LU99A; first compound 0.1581 µM) was 0.578. The relative viability (LU99A; first compound 0.5 µM) was 0.364, the relative viability (LXF-289; first compound 0.005 µM) was 0.221 and the relative viability (LXF-289; first compound 0.01581 µM) was 0.202. It also gave a relative viability (LXF-289; first compound 0.05 µM) of 0.171, a relative viability (LXF-289; first compound 0.1581 µM) of 0.112 and a relative viability (LXF-289; first compound 0.5 µM) of 0.0684. It also gave a relative viability (NCI-H1666; first compound 0.005 µM) of 0.773, a relative viability (NCI-H1666; first compound 0.01581 µM) of 0.725 and a relative viability (NCI-H1666; first compound 0.05 µM) of 0.642. It also gave a relative viability (NCI-H1666; first compound 0.1581 µM) of 0.396, a relative viability (NCI-H1666; first compound 0.5 µM) of 0.394 and a relative viability (NCI-H1792; first compound 0.005 µM) of 1.34. The relative viability (NCI-H1792; first compound 0.01581 µM) was 0.657, the relative viability (NCI-H1792; first compound 0.05 µM) was 0.603 and the relative viability (NCI-H1792; first compound 0.1581 µM) was 0.503. It also gave a relative viability (NCI-H1792; first compound 0.5 µM) of 0.355, a relative viability (NCI-H1793; first compound 0.005 µM) of 0.364 and a relative viability (NCI-H1793; first compound 0.01581 µM) of 0.37. For the same compound, the relative viability (NCI-H1793; first compound 0.05 µM) was 0.387, the relative viability (NCI-H1793; first compound 0.1581 µM) was 0.257 and the relative viability (NCI-H1793; first compound 0.5 µM) was 0.191. For the same compound, the relative viability (NCI-H1915; first compound 0.005 µM) was 0.366, the relative viability (NCI-H1915; first compound 0.01581 µM) was 0.29 and the relative viability (NCI-H1915; first compound 0.05 µM) was 0.273. It also gave a relative viability (NCI-H1915; first compound 0.1581 µM) of 0.183, a relative viability (NCI-H1915; first compound 0.5 µM) of 0.181 and a relative viability (NCI-H1944; first compound 0.005 µM) of 0.177. For the same compound, the relative viability (NCI-H1944; first compound 0.01581 µM) was 0.123, the relative viability (NCI-H1944; first compound 0.05 µM) was 0.117 and the relative viability (NCI-H1944; first compound 0.1581 µM) was 0.0903. The relative viability (NCI-H1944; first compound 0.5 µM) was 0.0942, the relative viability (NCI-H2009; first compound 0.005 µM) was 0.304 and the relative viability (NCI-H2009; first compound 0.01581 µM) was 0.275. The relative viability (NCI-H2009; first compound 0.05 µM) was 0.295, the relative viability (NCI-H2009; first compound 0.1581 µM) was 0.192 and the relative viability (NCI-H2009; first compound 0.5 µM) was 0.146. The relative viability (NCI-H2085; first compound 0.005 µM) was 0.202, the relative viability (NCI-H2085; first compound 0.01581 µM) was 0.263 and the relative viability (NCI-H2085; first compound 0.05 µM) was 0.2. The relative viability (NCI-H2085; first compound 0.1581 µM) was 0.188, the relative viability (NCI-H2085; first compound 0.5 µM) was 0.2 and the relative viability (NCI-H2170; first compound 0.005 µM) was 0.576. The relative viability (NCI-H2170; first compound 0.01581 µM) was 0.589, the relative viability (NCI-H2170; first compound 0.05 µM) was 0.533 and the relative viability (NCI-H2170; first compound 0.1581 µM) was 0.244. It also gave a relative viability (NCI-H2170; first compound 0.5 µM) of 0.241, a relative viability (NCI-H358; first compound 0.005 µM) of 0.206 and a relative viability (NCI-H358; first compound 0.01581 µM) of 0.167. For the same compound, the relative viability (NCI-H358; first compound 0.05 µM) was 0.131, the relative viability (NCI-H358; first compound 0.1581 µM) was 0.0707 and the relative viability (NCI-H358; first compound 0.5 µM) was 0.0702. It also gave a relative viability (NCI-H460; first compound 0.005 µM) of 0.394, a relative viability (NCI-H460; first compound 0.01581 µM) of 0.259 and a relative viability (NCI-H460; first compound 0.05 µM) of 0.105. It also gave a relative viability (NCI-H460; first compound 0.1581 µM) of 0.0311, a relative viability (NCI-H460; first compound 0.5 µM) of 0.0213 and a relative viability (SK-LU-1; first compound 0.005 µM) of 0.179. For the same compound, the relative viability (SK-LU-1; first compound 0.01581 µM) was 0.157, the relative viability (SK-LU-1; first compound 0.05 µM) was 0.17 and the relative viability (SK-LU-1; first compound 0.5 µM) was 0.147. The relative viability (SW 900; first compound 0.005 µM) was 0.837, the relative viability (SW 900; first compound 0.01581 µM) was 0.446 and the relative viability (SW 900; first compound 0.05 µM) was 0.314. For the same compound, the relative viability (UMC-11; first compound 0.005 µM) was 0.279, the relative viability (UMC-11; first compound 0.01581 µM) was 0.298 and the relative viability (UMC-11; first compound 0.05 µM) was 0.379. It also gave a relative viability (UMC-11; first compound 0.1581 µM) of 0.2 and a relative viability (UMC-11; first compound 0.5 µM) of 0.169.
